Assay results published in ChEMBL document CHEMBL1201862, “PubChem BioAssay data set” (2004).
The source made the active and inactive calls.

Tests used:
Heat shock protein HSP90 = Heat shock protein HSP90 (Homo sapiens, UniProt P07900+P08238); assay: tumor Hsp90 inhibitor potency, dose response (AID 712); format: functional
Cytochrome P450 3A4 = Cytochrome P450 3A4 (Homo sapiens, UniProt P08684);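 note: CYP3A4 tested as one member of a cytochrome P450 panel screen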
[1] = target: T1, Short transient receptor potential channel 4 (Mus musculus, UniProt Q9QUQ5); assay: mouse TRPC4 channel inhibitors, dose response, cell-based, HEK293 TRPC4/mu-opioid, Fluo-4 calcium (AID 434942); format: functional;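 note: potency of inhibitors blocking the TRPC4 calcium response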
T1 sequence (Q9QUQ5 whole entry): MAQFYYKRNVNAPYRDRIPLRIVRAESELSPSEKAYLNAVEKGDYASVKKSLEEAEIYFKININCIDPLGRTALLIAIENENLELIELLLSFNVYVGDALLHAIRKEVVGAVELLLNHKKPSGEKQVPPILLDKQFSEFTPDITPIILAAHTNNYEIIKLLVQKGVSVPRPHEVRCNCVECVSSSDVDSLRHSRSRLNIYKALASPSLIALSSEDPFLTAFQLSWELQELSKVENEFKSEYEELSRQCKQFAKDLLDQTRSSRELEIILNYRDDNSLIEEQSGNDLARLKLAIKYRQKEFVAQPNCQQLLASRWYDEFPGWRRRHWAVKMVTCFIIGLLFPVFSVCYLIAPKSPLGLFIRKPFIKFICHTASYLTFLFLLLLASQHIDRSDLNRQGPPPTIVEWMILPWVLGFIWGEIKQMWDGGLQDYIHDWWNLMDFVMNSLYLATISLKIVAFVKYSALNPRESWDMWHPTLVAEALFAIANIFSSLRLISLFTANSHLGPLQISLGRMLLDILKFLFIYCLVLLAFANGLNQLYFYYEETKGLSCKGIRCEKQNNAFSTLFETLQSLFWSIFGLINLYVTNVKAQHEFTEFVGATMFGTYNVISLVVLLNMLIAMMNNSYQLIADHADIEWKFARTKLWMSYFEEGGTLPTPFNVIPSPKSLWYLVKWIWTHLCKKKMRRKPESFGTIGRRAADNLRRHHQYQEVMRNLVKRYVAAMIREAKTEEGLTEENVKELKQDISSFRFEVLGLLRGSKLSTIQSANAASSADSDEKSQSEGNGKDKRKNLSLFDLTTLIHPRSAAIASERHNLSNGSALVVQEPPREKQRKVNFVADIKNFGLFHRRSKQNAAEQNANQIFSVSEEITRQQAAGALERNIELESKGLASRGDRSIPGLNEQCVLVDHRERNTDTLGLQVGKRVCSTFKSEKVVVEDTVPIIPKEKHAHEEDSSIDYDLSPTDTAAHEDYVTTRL

[2] = antifungal activity, alamar blue, dry powder, counter-screen for C. neoformans cell wall antifungals, dose response (AID 743128); format: functional, organism-based
[3] = HEK293T cell cytotoxicity, dose response, cytotoxicity control, plate reader, dry powder, set 10 (AID 743315); format: functional, cell-based; settings: HEK293
[4] = P. falciparum Dd2 growth inhibitors, dose response, SYBR Green, dry powder samples, set 4 (AID 1159572); format: functional, cell-based
[5] = target: Peroxisome proliferator-activated receptor gamma/Nuclear receptor corepressor 2 (Homo sapiens, UniProt P37231+Q9Y618); assay: Counterscreen for NR2E3 inverse agonists: TR-FRET-based biochemical high throughput dose response assay to identify inverse agonists of the interaction between peroxisome proliferator-activated receptor gamma (PPARg) and nuclear receptor co-repressor 2 (NCOR2).; format: functional
[6] = target: Photoreceptor-specific nuclear receptor (Homo sapiens, UniProt Q9Y5X4); assay: NR2E3 inverse agonists, dose response, biochemical, TR-FRET (AID 463256); format: functional
[7] = HEp-2 cell cytotoxicity, dose response, cytotoxicity control for RSV inhibitor project, HTS (AID 2410); format: functional; settings: human respiratory syncytial virus
[8] = system: Streptococcus sp. 'group A'; assay: growth inhibition of control SK(-) GAS strain, dose response, counter-screen for streptokinase expression inhibitor project, luminescence, kanamycin, BacTiterGlo, confirmation (AID 1900); format: functional, organism-based
Streptokinase A = target: T2, Streptokinase A (Streptococcus pyogenes serotype M1, UniProt P10520); assay: S. pyogenes streptokinase expression inhibitors, potency, dose response, plasminogen activation absorbance, OD405 (AID 1914); format: functional, Streptococcus pyogenes M1 GAS;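 note: secreted streptokinase activity via plasminogen activation per viability signal from cell pellet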
T2 sequence (P10520 whole entry): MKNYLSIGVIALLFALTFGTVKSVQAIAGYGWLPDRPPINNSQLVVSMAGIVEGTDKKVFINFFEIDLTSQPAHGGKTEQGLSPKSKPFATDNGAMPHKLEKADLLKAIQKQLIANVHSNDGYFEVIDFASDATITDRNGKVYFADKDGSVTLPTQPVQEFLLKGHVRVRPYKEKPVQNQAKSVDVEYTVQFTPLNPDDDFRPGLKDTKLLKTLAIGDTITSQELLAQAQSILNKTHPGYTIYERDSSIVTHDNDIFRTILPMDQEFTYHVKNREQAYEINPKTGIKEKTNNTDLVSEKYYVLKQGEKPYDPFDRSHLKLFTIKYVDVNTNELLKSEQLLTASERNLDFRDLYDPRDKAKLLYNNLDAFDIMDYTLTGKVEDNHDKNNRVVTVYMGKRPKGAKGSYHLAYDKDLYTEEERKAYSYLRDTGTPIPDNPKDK

[9] = M. tuberculosis growth inhibition, HTS (AID 449762); format: functional
Streptococcus = assay: Group A Streptococcus viability loss, dose response, counter-screen for streptokinase expression inhibitor project, luminescence, BacTiterGlo (AID 1915); format: functional, organism-based;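 note: potency for reduction of bacterial viability or growth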
[10] = P. falciparum Dd2 growth inhibitors, dose response, SYBR Green, dry powder samples, set 9 (AID 1159568); format: functional, cell-based
[11] = P. falciparum Dd2 growth inhibitors, dose response, SYBR Green, cherry-picked samples (AID 1159567); format: functional, cell-based
[12] = HepG2 cell cytotoxicity, dose response, cytotoxicity control, cherry-picked samples (AID 1159577); format: functional, cell-based
Transthyretin = Transthyretin (Homo sapiens, UniProt P02766); assay: Luminescence-based cell-based high throughput dose response assay to identify activators of Transthyretin (TTR) transcription.; format: functional

Peroxisome proliferator-activated receptor gamma/Nuclear receptor corepressor 2, sequence (P37231 whole entry): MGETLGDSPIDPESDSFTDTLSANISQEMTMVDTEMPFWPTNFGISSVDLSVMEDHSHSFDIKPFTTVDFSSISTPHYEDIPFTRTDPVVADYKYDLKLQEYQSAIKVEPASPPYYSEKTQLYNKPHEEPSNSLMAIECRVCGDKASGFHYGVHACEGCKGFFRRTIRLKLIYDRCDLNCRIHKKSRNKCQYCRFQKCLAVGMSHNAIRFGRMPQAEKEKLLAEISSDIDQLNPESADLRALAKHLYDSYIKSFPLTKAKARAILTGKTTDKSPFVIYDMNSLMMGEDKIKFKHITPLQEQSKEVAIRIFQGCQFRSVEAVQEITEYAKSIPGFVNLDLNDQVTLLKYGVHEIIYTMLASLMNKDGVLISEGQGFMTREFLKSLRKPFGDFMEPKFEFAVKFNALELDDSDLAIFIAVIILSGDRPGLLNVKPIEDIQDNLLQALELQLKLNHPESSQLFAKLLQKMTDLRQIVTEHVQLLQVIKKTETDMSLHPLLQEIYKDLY
Peroxisome proliferator-activated receptor gamma/Nuclear receptor corepressor 2, sequence (Q9Y618 whole entry): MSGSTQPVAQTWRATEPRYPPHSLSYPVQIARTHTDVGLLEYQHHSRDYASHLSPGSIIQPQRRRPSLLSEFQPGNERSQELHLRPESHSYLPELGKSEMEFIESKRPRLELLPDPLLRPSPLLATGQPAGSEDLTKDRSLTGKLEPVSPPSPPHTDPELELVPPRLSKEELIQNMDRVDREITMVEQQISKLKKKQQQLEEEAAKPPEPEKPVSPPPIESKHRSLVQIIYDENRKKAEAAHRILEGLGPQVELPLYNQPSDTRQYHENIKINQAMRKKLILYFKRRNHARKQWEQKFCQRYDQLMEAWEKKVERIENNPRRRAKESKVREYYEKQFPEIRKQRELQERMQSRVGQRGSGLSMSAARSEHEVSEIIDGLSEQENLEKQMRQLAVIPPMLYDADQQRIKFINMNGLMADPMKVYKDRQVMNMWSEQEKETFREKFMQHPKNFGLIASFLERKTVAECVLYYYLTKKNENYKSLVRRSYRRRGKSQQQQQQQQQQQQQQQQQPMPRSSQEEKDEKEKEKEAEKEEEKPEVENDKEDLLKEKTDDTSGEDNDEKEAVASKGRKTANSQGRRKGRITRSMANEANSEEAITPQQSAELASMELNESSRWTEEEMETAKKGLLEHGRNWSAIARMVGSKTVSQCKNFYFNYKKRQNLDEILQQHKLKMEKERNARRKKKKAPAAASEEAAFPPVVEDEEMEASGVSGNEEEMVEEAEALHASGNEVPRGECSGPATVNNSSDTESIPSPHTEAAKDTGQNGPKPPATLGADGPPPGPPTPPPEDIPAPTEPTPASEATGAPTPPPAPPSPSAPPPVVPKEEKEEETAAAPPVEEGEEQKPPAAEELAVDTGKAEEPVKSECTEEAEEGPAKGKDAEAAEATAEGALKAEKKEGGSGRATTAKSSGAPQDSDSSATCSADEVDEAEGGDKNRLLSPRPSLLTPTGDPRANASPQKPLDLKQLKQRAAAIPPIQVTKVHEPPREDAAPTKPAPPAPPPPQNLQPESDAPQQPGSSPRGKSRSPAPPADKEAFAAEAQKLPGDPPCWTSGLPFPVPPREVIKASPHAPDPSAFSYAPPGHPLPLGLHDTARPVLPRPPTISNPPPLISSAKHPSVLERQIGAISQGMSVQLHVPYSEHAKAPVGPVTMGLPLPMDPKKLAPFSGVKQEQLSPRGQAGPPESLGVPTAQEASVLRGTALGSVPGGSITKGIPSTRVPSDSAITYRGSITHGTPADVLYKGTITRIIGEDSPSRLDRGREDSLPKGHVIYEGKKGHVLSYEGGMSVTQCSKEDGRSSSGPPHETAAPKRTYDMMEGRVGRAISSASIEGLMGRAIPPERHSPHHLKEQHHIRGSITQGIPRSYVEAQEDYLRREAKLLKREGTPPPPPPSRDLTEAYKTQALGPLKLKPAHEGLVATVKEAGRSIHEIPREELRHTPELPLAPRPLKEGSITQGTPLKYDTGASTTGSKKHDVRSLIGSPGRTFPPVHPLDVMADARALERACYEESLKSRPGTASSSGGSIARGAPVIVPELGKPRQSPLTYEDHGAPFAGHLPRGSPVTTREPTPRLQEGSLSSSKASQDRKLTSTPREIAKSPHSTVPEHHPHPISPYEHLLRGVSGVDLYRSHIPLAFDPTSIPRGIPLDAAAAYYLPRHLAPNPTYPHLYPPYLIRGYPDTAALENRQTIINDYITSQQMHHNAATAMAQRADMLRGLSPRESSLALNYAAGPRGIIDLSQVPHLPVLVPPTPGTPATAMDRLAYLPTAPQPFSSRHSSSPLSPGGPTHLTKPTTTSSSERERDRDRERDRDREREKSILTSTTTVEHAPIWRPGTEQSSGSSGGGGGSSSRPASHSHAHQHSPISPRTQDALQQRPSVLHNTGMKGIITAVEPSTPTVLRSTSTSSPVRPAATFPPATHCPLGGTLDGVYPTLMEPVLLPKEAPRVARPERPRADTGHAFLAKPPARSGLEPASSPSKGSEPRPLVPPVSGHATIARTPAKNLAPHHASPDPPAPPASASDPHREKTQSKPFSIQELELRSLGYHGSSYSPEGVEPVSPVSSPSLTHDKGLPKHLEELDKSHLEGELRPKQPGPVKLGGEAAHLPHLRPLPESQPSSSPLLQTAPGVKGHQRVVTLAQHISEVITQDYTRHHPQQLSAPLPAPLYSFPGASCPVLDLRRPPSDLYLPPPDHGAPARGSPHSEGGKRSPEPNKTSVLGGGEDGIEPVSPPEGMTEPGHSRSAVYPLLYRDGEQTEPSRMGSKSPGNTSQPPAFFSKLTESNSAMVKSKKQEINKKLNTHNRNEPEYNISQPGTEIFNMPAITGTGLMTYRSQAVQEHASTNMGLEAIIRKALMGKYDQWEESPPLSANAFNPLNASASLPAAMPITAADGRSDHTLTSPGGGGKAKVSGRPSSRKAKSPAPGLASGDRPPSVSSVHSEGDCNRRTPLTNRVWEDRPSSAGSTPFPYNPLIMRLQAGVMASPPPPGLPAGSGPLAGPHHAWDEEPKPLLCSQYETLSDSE
Cytochrome P450 3A4, sequence (P08684 whole entry): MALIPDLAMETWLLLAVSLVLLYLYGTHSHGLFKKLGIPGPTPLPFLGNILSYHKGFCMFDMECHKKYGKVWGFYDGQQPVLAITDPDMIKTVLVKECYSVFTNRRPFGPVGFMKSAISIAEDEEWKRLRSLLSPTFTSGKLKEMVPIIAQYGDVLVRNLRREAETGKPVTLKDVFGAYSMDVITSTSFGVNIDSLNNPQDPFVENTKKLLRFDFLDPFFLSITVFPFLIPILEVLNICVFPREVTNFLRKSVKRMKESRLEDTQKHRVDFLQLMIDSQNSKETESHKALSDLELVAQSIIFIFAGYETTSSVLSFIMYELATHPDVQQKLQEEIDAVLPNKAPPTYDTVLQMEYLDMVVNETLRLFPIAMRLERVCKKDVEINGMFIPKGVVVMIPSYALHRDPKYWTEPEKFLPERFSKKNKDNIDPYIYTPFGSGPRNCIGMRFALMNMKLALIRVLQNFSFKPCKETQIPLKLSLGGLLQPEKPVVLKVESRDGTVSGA
Photoreceptor-specific nuclear receptor, sequence (Q9Y5X4 whole entry): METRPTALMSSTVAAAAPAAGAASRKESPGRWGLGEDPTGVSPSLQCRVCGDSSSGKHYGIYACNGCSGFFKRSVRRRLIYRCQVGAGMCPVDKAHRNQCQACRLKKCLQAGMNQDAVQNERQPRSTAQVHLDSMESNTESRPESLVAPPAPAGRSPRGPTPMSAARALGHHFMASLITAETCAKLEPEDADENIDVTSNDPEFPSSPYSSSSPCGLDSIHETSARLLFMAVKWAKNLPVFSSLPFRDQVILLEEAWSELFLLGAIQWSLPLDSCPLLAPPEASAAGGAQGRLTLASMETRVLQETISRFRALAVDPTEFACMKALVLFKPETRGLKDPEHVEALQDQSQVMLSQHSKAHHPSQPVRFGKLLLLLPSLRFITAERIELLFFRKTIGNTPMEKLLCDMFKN

Which IC50 (Heat shock protein HSP90) does the source give for `CN(c1ccccc1)c1ccc(/C=c2\s/c(=C(/C#N)C(=O)C(C)(C)C)n(Cc3ccco3)c2=O)cc1` here?
The IC50 was 13.4314 µM.

What about the AC50 (Cytochrome P450 3A4) of the same molecule?
Its AC50 is 6.31 µM (inconclusive).

For `Cc1ccc(OCCn2c(C)nc3ccccc32)cc1`, which EC50 [1] is on record?
The EC50 was 0.944 µM (active).

What about the AC50 [2] of the same molecule?
Its AC50 is 41.6 µM (active).

What about the AC50 [3] of the same molecule?
Its AC50 is 40.5 µM (active).

Which AC50 [4] does the source give for `CCC(=O)N1CCC2(CC1)CN(C(C)=O)[C@@H](CO)c1[nH]c3cc(OC)ccc3c12` here?
Its AC50 is 20.1 µM (active).

Which IC50 [5] does the source give for `CCOCCCNC(=O)c1cc(-c2ccc(Br)s2)nc2ccccc12` here?
Its IC50 is 4.18 µM (active).

What about the IC50 [6] of the same molecule?
Its IC50 is 6.67 µM (active).

With `Oc1ccc(/C=N/n2c3ccccc3c3ccccc32)cc1` as the molecule, how does the CC50 [7] read?
The CC50 was 17.2 µM (active).

What about the EC50 [8] of the same molecule?
Its EC50 is 6.24 µM (active).

What about the EC50 (Streptokinase A) of the same molecule?
The EC50 was > 150 µM (not active).

And the IC50 [9]?
The IC50 was > 100 µM (active).

And the EC50 (Streptococcus)?
Its EC50 is 10.8 µM (active).

With `COc1ccccc1NC(=O)N1C[C@@H]2N[C@H](C1)[C@@H]2c1ccc(/C=C/c2ccccc2)cc1` as the molecule, how does the AC50 [10] read?
The AC50 was 8.73 µM (active).

What about the AC50 [11] of the same molecule?
The AC50 was 1.96 µM (active).

And the AC50 [12]?
The AC50 was 9.74 µM (active).

With `COc1ccc(-c2cc(C)no2)cc1S(=O)(=O)NCc1cccc(C)c1` as the molecule, how does the EC50 (Transthyretin) read?
Its EC50 is > 167 µM (inactive).
